Laboratory results: patent US20240002342A1, “HERBICIDAL DERIVATIVES” (SYNGENTA CROP PROTECTION AG, priority 2020, published 2024)

Tests used:
Assay type in all cases: in vivo
[1] = system: Amaranthus retoflexus (AMARE); experiment: Post-emergence herbicidal test; settings: 1000 g/ha unless otherwise stated, evaluated after 13 days
Protocol: (§1) Seeds of a variety of test species are sown in standard soil in pots (Amaranthus retoflexus (AMARE), Solanum nigrum (SOLNI), Setaria faberi (SETFA), Lolium perenne (LOLPE), Echinochloa crus-galli (ECHCG), Ipomoea hederacea (IPOHE)). After 8 days cultivation under controlled conditions in a glasshouse (at 24° C./16° C., day/night; 14 hours light; 65% humidity), the plants are sprayed with an aqueous spray solution derived from the formulation of the technical active ingredient in acetone/water (50:50) solution containing 0.5% Tween 20 (polyoxyethelyene sorbitan monolaurate, CAS RN 9005-64-5). Compounds are applied at 1000 g/ha unless otherwise stated. The test plants are then grown in a glasshouse under controlled conditions in a glasshouse (at 24° C./16° C., day/night; 14 hours light; 65% humidity) and watered twice daily. After 13 days the test is evaluated for the percentage damage caused to the plant. The biological activities are shown in the following table on a five-point scale (5=81-100%; 4=61-80%; 3=41-60%; 2=21-40%; 1=0-20%).

[2] = system: Echinochloa crus-galli (ECHCG); experiment: Post-emergence herbicidal test; settings: 1000 g/ha unless otherwise stated, evaluated after 13 days
Protocol: as §1

[3] = system: Ipomoea hederacea (IPOHE); experiment: Post-emergence herbicidal test; settings: 1000 g/ha unless otherwise stated, evaluated after 13 days
Protocol: as §1

[4] = system: Lolium perenne (LOLPE); experiment: Post-emergence herbicidal test; settings: 1000 g/ha unless otherwise stated, evaluated after 13 days
Protocol: as §1

[5] = system: Setaria faberi (SETFA); experiment: Post-emergence herbicidal test; settings: 1000 g/ha unless otherwise stated, evaluated after 13 days
Protocol: as §1

[6] = system: Solanum nigrum (SOLNI); experiment: Post-emergence herbicidal test; settings: 1000 g/ha unless otherwise stated, evaluated after 13 days
Protocol: as §1

[7] = system: Amaranthus retoflexus (AMARE); experiment: Pre-emergence herbicidal test; settings: 1000 g/ha unless otherwise stated
[8] = system: Solanum nigrum (SOLNI); experiment: Pre-emergence herbicidal test; settings: 1000 g/ha unless otherwise stated
[9] = system: Setaria faberi (SETFA); experiment: Pre-emergence herbicidal test; settings: 1000 g/ha unless otherwise stated
[10] = system: Lolium perenne (LOLPE); experiment: Pre-emergence herbicidal test; settings: 1000 g/ha unless otherwise stated
[11] = system: Echinochloa crus-galli (ECHCG); experiment: Pre-emergence herbicidal test; settings: 1000 g/ha unless otherwise stated
[12] = system: Ipomoea hederacea (IPOHE); experiment: Pre-emergence herbicidal test; settings: 1000 g/ha unless otherwise stated

Row | SMILES | percentage damage caused to the plant, AMARE (five-point scale) [1] | percentage damage caused to the plant, ECHCG (five-point scale) [2] | percentage damage caused to the plant, IPOHE (five-point scale) [3] | percentage damage caused to the plant, LOLPE (five-point scale) [4] | percentage damage caused to the plant, SETFA (five-point scale) [5] | percentage damage caused to the plant, SOLNI (five-point scale) [6] | percentage damage caused to the plant, AMARE (five-point scale) [7] | percentage damage caused to the plant, SOLNI (five-point scale) [8] | percentage damage caused to the plant, SETFA (five-point scale) [9] | percentage damage caused to the plant, LOLPE (five-point scale) [10] | percentage damage caused to the plant, ECHCG (five-point scale) [11] | percentage damage caused to the plant, IPOHE (five-point scale) [12]
1 | C=Cc1c(C)n(CC)c(-c2ccc(Cl)c(Cl)c2)c(C(=O)O)c1=O [Compound 2.001, 2-(3,4-dichlorophenyl)-1-ethyl-6-methyl-4-oxo-5-vinyl-pyridine-3-carboxylic acid] | 1 (1=0-20%) | 2 (2=21-40%) | 4 (4=61-80%) | 4 (4=61-80%) | 4 (4=61-80%) | 1 (1=0-20%) | 1 (1=0-20%) | 1 (1=0-20%) | 4 (4=61-80%) | 4 (4=61-80%) | 3 (3=41-60%) | 3 (3=41-60%)
2 | C#Cc1c(C)n(CC)c(-c2ccc(Cl)c(Cl)c2)c(C(=O)O)c1=O [Compound 2.005, 2-(3,4-dichlorophenyl)-1-ethyl-5-ethynyl-6-methyl-4-oxo-pyridine-3-carboxylic acid] | 5 (5=81-100%) | 3 (3=41-60%) | 4 (4=61-80%) | 5 (5=81-100%) | 5 (5=81-100%) | 4 (4=61-80%) | 1 (1=0-20%) | 4 (4=61-80%) | 4 (4=61-80%) | 1 (1=0-20%) | 1 (1=0-20%) | 4 (4=61-80%)
3 | CCn1c(C)c(C(C)=O)c(=O)c(C(=O)O)c1-c1ccc(Cl)c(Cl)c1 [Compound 2.008, 5-acetyl-2-(3,4-dichlorophenyl)-1-ethyl-6-methyl-4-oxo-pyridine-3-carboxylic acid] | 2 (2=21-40%) | 3 (3=41-60%) | 2 (2=21-40%) | 5 (5=81-100%) | 3 (3=41-60%) | 2 (2=21-40%) | 1 (1=0-20%) | 3 (3=41-60%) | 5 (5=81-100%) | 4 (4=61-80%) | 3 (3=41-60%) | 3 (3=41-60%)
4 | CCn1c(C)c(C(=O)O)c(=O)c(C(=O)O)c1-c1ccc(Cl)c(Cl)c1 [Compound 2.010, 2-(3,4-dichlorophenyl)-1-ethyl-6-methyl-4-oxo-pyridine-3,5-dicarboxylic acid] | 2 (2=21-40%) | 1 (1=0-20%) | 2 (2=21-40%) | 1 (1=0-20%) | 1 (1=0-20%) | 2 (2=21-40%) | 1 (1=0-20%) | 3 (3=41-60%) | 1 (1=0-20%) | 2 (2=21-40%) | 1 (1=0-20%) | 1 (1=0-20%)
5 | C=Cc1c(C)n(CC)c(-c2ccc(Cl)c(Cl)c2)c(C(=O)OC)c1=O [Compound 4.001, methyl 2-(3,4-dichlorophenyl)-1-ethyl-6-methyl-4-oxo-5-vinyl-pyridine-3-carboxylate] | 1 (1=0-20%) | 1 (1=0-20%) | 2 (2=21-40%) | 4 (4=61-80%) | 4 (4=61-80%) | 1 (1=0-20%) | 1 (1=0-20%) | 1 (1=0-20%) | 1 (1=0-20%) | 1 (1=0-20%) | 1 (1=0-20%) | 1 (1=0-20%)
